Source: PubChem BioAssay (NCI)
Several values for one entry are separate records, joined by “and”; a condition that tells them apart may be missing. Identical values can stand only once.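 Interpolation was linear, between the two tested concentrations surrounding the appropriate level; five concentrations were tested over 48 hours in 96-well plates. The concentration for full growth arrest is given as TGI.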

Assays:
Test in all cases: NCI anticancer screen, dose series, 48 h
[1] = test system: NCI/ADR-RES ovarian
[2] = test system: BT-549 breast
[3] = test system: OVCAR-4 ovarian
[4] = test system: KM12 colon
[5] = test system: SK-MEL-28 melanoma
[6] = test system: M14 melanoma
[7] = test system: HOP-62 NSCLC
[8] = test system: SF-268 CNS
[9] = test system: A549 NSCLC
[10] = test system: CAKI-1 renal
[11] = test system: PC-3 prostate
[12] = test system: UACC-62 melanoma
[13] = test system: MDA-MB-231 breast
[14] = test system: SK-OV-3 ovarian
[15] = test system: SN12C renal
[16] = test system: UACC-257 melanoma
[17] = test system: SK-MEL-5 melanoma

Structure (SMILES) | TGI [1] | TGI [2] | TGI [3] | TGI [4] | TGI [5] | TGI [6] | TGI [7] | TGI [8] | TGI [9] | TGI [10] | TGI [11] | TGI [12] | TGI [13] | TGI [14] | TGI [15] | TGI [16] | TGI [17]
CCOC(CI)O[C@@H]1C=C[C@H](OC(C)=O)C1 (some centres not stated) | > 100 µM | > 100 µM | > 100 µM | > 100 µM | > 100 µM | > 100 µM | > 100 µM | > 100 µM | > 100 µM | > 100 µM | > 100 µM | > 100 µM | > 100 µM | > 100 µM | > 100 µM | > 100 µM | –
COc1ccc2c(c1)CCCN1Cc3cc(OC)c(OC)cc3CC21 (configuration not stated) | > 100 µM | > 100 µM | > 100 µM | > 100 µM | > 100 µM | 44.1 µM | > 100 µM | > 100 µM | > 100 µM | > 100 µM | > 100 µM | > 100 µM | > 100 µM | > 100 µM | > 100 µM | > 100 µM | > 100 µM
Nc1ccc(Nc2c3ccccc3nc3ccccc23)cc1 | > 10 µM | > 10 µM | > 10 µM | > 10 µM | > 10 µM | > 10 µM | > 10 µM | > 10 µM | > 10 µM | 6.94 µM | > 10 µM | 5.22 µM | > 10 µM | > 10 µM | > 10 µM | > 10 µM | > 10 µM
C[C@]12CC[C@H](O)C=C1CC[C@@H]1[C@@H]2CC[C@]2(C)C(=N/O)/C(=C/c3ccncc3)C[C@@H]12 | 96.8 µM | 81.5 µM | 76 µM | > 100 µM | 60.2 µM | 24.6 µM | 30.9 µM | 49.4 µM | 29.8 µM | > 100 µM | 14.6 µM | 19.3 µM | 23.9 µM | 34.9 µM | 32.8 µM | 32.8 µM | 18 µM
CCN(CC)CCn1c2cc3c(cc2c(=O)c2cccnc21)OCO3 | > 10 µM | > 10 µM | > 10 µM | > 10 µM | > 10 µM | > 10 µM | > 10 µM | > 10 µM | > 10 µM | > 10 µM | > 10 µM | > 10 µM | > 10 µM | > 10 µM | > 10 µM | > 10 µM | > 10 µM
Cc1ccc(CC2(OCCN(C)C)CCC(C(C)(C)C)CC2)cc1 (configuration not stated) | 21.5 µM and 22.3 µM | 16.1 µM and 19.8 µM | 15.2 µM and 16.6 µM | 13 µM and 10.4 µM | 4.08 µM and 4.04 µM | 3.36 µM and 3.35 µM | 11.1 µM and 8.4 µM | 27.9 µM and 23.5 µM | 14 µM and 20.4 µM | 17.7 µM and 15.3 µM | 13.7 µM and 15.2 µM | 5.48 µM and 10 µM | 19 µM and 18.8 µM | 20.9 µM and 23.6 µM | 17.6 µM and 17.8 µM | 7.65 µM and 4.74 µM | 2.94 µM and 2.97 µM
COc1ccc(C2=Nn3c(nc4sc(-c5ccccc5)cc4c3=O)SC2)cc1 | > 100 µM | > 100 µM | – | > 100 µM | > 100 µM | – | > 100 µM | > 100 µM | > 100 µM | > 100 µM | > 100 µM | > 100 µM | > 100 µM | > 100 µM | > 100 µM | > 100 µM | > 100 µM
CCOC(=O)CCC(NC(=O)c1ccc(Nc2nc3ccccc3n3cccc23)cc1)C(=O)OCC (configuration not stated) | 48.5 µM | 77.3 µM | – | > 100 µM | > 100 µM | > 100 µM | 54.2 µM | > 100 µM | > 100 µM | > 100 µM | 34.5 µM | 53.6 µM | 48.4 µM | 50.1 µM | – | 72.5 µM | > 100 µM
NC1=CN(Cc2ccccc2)C2=N/C(=C\c3ccccc3)C(=O)N12 | > 100 µM | > 100 µM | > 100 µM | > 100 µM | > 100 µM | > 100 µM | > 100 µM | > 100 µM | > 100 µM | > 100 µM | > 100 µM | > 100 µM | > 100 µM | > 100 µM | > 100 µM | > 100 µM | > 100 µM
COC(=O)[C@]12CCC(C)(C)C[C@H]1C1=CC[C@@H]3[C@@]4(C)CC[C@H](OC5OC(CO)C(O)C(O)C5OC5OC(CO)C(O)C(O)C5O)C(C)(C)[C@@H]4CC[C@@]3(C)[C@]1(C)CC2 (some centres not stated) | 29.1 µM | 35.8 µM | 15.6 µM | 26.9 µM | 12.3 µM | 13.9 µM | 25.3 µM | 31.2 µM | 22.2 µM | 21 µM | 15.3 µM | 23.9 µM | 7.2 µM | 36.1 µM | 15.9 µM | 20.3 µM | 29.3 µM
COc1ccc2oc(=O)c3c(c2c1C)OC(C)(C)C=C3 | > 100 µM | > 100 µM | – | > 100 µM | > 100 µM | > 100 µM | > 100 µM | > 100 µM | > 100 µM | > 100 µM | > 100 µM | > 100 µM | > 100 µM | > 100 µM | > 100 µM | > 100 µM | > 100 µM
CN1C(=O)[C@@H]2N(CSC2(C)C)C1=S | > 100 µM | > 100 µM | > 100 µM | > 100 µM | > 100 µM | > 100 µM | > 100 µM | > 100 µM | > 100 µM | > 100 µM | > 100 µM | > 100 µM | > 100 µM | > 100 µM | > 100 µM | > 100 µM | > 100 µM
COc1ccc([C@H]2C=C(c3cc(F)c(Cl)cc3Cl)NC(=S)N2)cc1 | > 100 µM | > 100 µM | > 100 µM | > 100 µM | > 100 µM | > 100 µM | > 100 µM | > 100 µM | > 100 µM | > 100 µM | 65.7 µM | > 100 µM | > 100 µM | > 100 µM | 57.1 µM | 76.2 µM | 27.2 µM
COc1ccccc1N1C(=O)CS(=O)(=O)C1c1cccc(Oc2ccccc2)c1 (configuration not stated) | 40 µM | 31.8 µM | 38.6 µM | 61.7 µM | 36.7 µM | 33.3 µM | 49.2 µM | 33.1 µM | 40.5 µM | 64.3 µM | 27.2 µM | 25.3 µM | 30.7 µM | 73.5 µM | 33.1 µM | 25.6 µM | 28.9 µM
